Experimental data from patent US20040157798A1, “Drug for use in bone grafting” (priority 2001, published 2004).

System: 10 mm tibial defect model in rabbits
Assay: 10 mm tibial defect model in rabbits with calcium sulphate (Osteoset) cylinder; pQCT scans and radiographs
Assay type: in vivo, NZW rabbit
Settings: for BMC / BMD / Polar Moment / Total Bone Area: 6 weeks; for Total Bone Area: CT slice at centre of defect
Text: The following example outlines the process by which the effects of bisphosphonates on potentiating new bone formation in a graft may be observed. In this regard, the effects on bone mineralisation and the mechanical properties are observed in a 10 mm tibial defect model in rabbits.
The present experiment uses an 8-week-old NZW rabbit model. A 10 mm gap is surgically removed from the tibiae of the rabbits. The bones are held with a M-100 external fixator.
Cylinders of calcium sulphate (Osteoset) were prepared on the day of surgery. Moulds were prepared using a combination of 1.0 ml and 3.0 ml syringes, and the Osteoset poured into the moulds in a sterile environment. The cylinders were removed from the moulds at 12 minutes, and allowed to dry in air for 90 minutes, followed by final drying in a microwave for 30 seconds. Once dry, the cylinders were formed into a standard dimension of 10 mm length, with an external diameter of 9 mm and with a 3 mm diameter internal core. The cylinders weighed 0.80.9 g. The cylinders were stored in sterile environment until required.
At the commencement of the operative procedure 0.15 ml of saline, or 0.15 ml of zoledronic acid (0.05 mg/kg) was adsorbed onto a calcium sulphate cylinder, which was then replaced into the sterile container.
The operative field was prepared by shaving with clippers, disinfected with povidone iodine 4% w/v in 70% alcohol. The right tibia was exposed sub-periosteally along its length and four 3 mm Orthofix pins inserted. An M-100 monolateral external fixator (Orthofix S.L.R) was applied. A 10 mm piece of mid-diaphyseal tibia was removed using an oscillating saw, along with the central 10 mm of periosteum. A calcium sulphate cylinder was then placed in the defect, and held by slight compression of the external fixator.
The animals were randomised such that at the time of surgery, 24 animals had Osteoset cylinders with saline adsorbed inserted, 12 of whom were given saline-only infusions and 12 of whom were given 0.1 mg/kg zoledronic acid infusion at the time of surgery and again on day 14. A further 12 animals had Osteoset cylinders with 0.15 ml of zoledronic acid (0.05 mg/kg) adsorbed inserted, and given a saline only infusion. Note that in the third leg the zoledronic acid was administered to the site via the cylinder, and not directly.
Animals were culled at 28 days (18 animals) and at 42 days (18 animals) with IV pentobarbitone 150 mg/kg.
[…]. CT scans were performed at 28 days (18 animals) and at 42 days (18 animals) using a Stratec XCT Research SA pQCT scanner.

[1] = IV ZA 0.1 mg/kg at surgery and day 14
[2] = Local ZA 0.05 mg/kg adsorbed on cylinder

O=P(O)(O)C(O)(Cn1ccnc1)P(=O)(O)O [ZA, 1-hydroxy-2-[(1H-imidazol-1-yl)ethylidine]bisphosphonic acid] was tested, and the “Bone area increase over controls” value (4 weeks, IV ZA group) was 131%, the “Polar moment of inertia increase over controls” value (“Polar moment of inertia increase” for short) (4 weeks, IV ZA group) was 104% and the “Bone area increase over controls” value (4 weeks, Local ZA group) was 216%. The “Polar moment of inertia increase” value (4 weeks, Local ZA group) was 316%, the BMC [1] was 45.9 (20.7) mg/mm and the BMD [1] was 784.6 (97.7) mg/cm^3. The “Polar Moment” value [1] was 442.8 (585.2) mm^4, the “Total Bone Area” value (IV ZA 0.1 mg/kg infusion at surgery and day 14) was 58.0 (23.2) mm^2 and the “Total Bone Area” value (Local ZA 0.05 mg/kg adsorbed on calcium sulphate cylinder) was 66.6 (7.9) mm^2. The BMC [2] was 45.0 (5.4) mg/mm, the BMD [2] was 676.2 (49.3) mg/cm^3 and the “Polar Moment” value [2] was 1343.1 (254.7) mm^4. The “Polar moment of inertia increase” value (six weeks, Local ZA group) was 40% and the “Cross sectional area increase over controls” value (six weeks, local bisphosphonate group, not significant) was 20%.
